Experimental findings from patent US6730685B1, “Formulation of substituted benzimidazoles” (AstraZeneca AB, priority 1999, dated 2004) are described below.

The data set is described as follows: Solubility of omeprazole and omeprazole sodium in water, dichloromethane and polyethylene glycol 400. It is filed as physicochemical. As to the method:
The solubility of omeprazole (the non-ionised species) has been determined to approximately 0.1 g/l in water and approximately 100 g/l in dichloromethane at room temperature (22° C.). […] Omeprazole sodium is ionised and is therefore much more soluble in water compared with omeprazole and the opposite is applicable in the less polar solvent dichloromethane. The solubility of omeprazole (the non-ionised species) has been determined to approximately 20 g/l in polyethylene glycol 400. This means that the solubility is much better in polyethylene glycol, a less polar solvent, than in water. […] This means that the solubility in polyethylene glycol is much higher for omeprazole sodium than for omeprazole. The high solubility of omeprazole sodium in polyethylene glycol is very favourable regarding the formulation aspects of a parenteral pharmaceutical product.

Molecules are shown by their SMILES. Converted amounts (≈) assume the structure as drawn.

The term solubility denotes the concentration that dissolves in the medium under given conditions.

Consider `COc1ccc2[nH]c([S+]([O-])Cc3ncc(C)c(OC)c3C)nc2c1` (stereo not drawn) [omeprazole], for which the solubility is, setting by setting: (22 °C, organic solvent or mixture) approximately 100 mg/mL (≈ 289 mM); (22 °C, water) approximately 0.1 mg/mL (≈ 0.289 mM); (organic solvent or mixture) approximately 20 mg/mL (≈ 57.9 mM).

Take `COc1ccc2[n-]c([S+]([O-])Cc3ncc(C)c(OC)c3C)nc2c1.[Na+]` (stereo not drawn) [Omeprazole sodium]: under “result in words”, the Solubility in dichloromethane entry was “only slightly soluble”, the “Solubility in polyethylene glycol 400” value is “freely soluble” and the Solubility in water entry is given as “freely soluble”.
